Like-named read-outs stand apart in the source and are kept apart here.
Tests used:
Format in all cases: binding
[1] = target: T1, HeLa cell extract proteins (Homo sapiens, UniProt P28066)
T1 construct: endogenous in cells; host or cells: HeLa cell extract
T1 sequence (P28066 1-241): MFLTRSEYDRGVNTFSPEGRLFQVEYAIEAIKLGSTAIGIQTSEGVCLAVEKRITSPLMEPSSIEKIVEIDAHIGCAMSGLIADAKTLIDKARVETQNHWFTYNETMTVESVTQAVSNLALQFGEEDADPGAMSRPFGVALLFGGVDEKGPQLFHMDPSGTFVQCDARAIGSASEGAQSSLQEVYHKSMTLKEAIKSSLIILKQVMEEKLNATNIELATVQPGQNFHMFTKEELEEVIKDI

[2] = target: T2, HeLa cell extract proteins (Homo sapiens, UniProt Q96AG4)
T2 construct: endogenous in cells; host or cells: HeLa cell extract
T2 sequence (Q96AG4 1-307): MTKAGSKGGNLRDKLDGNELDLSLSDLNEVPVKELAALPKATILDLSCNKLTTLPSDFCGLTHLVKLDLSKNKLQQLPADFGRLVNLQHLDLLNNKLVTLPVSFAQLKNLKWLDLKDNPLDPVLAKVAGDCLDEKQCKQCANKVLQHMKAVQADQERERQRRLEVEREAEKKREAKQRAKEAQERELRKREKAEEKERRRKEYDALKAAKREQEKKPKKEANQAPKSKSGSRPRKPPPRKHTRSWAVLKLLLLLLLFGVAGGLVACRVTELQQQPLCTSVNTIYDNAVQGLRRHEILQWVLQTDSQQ

[3] = target: T3, HeLa cell extract proteins (Homo sapiens, UniProt O95487)
T3 construct: endogenous in cells; host or cells: HeLa cell extract
T3 sequence (O95487 1-1268): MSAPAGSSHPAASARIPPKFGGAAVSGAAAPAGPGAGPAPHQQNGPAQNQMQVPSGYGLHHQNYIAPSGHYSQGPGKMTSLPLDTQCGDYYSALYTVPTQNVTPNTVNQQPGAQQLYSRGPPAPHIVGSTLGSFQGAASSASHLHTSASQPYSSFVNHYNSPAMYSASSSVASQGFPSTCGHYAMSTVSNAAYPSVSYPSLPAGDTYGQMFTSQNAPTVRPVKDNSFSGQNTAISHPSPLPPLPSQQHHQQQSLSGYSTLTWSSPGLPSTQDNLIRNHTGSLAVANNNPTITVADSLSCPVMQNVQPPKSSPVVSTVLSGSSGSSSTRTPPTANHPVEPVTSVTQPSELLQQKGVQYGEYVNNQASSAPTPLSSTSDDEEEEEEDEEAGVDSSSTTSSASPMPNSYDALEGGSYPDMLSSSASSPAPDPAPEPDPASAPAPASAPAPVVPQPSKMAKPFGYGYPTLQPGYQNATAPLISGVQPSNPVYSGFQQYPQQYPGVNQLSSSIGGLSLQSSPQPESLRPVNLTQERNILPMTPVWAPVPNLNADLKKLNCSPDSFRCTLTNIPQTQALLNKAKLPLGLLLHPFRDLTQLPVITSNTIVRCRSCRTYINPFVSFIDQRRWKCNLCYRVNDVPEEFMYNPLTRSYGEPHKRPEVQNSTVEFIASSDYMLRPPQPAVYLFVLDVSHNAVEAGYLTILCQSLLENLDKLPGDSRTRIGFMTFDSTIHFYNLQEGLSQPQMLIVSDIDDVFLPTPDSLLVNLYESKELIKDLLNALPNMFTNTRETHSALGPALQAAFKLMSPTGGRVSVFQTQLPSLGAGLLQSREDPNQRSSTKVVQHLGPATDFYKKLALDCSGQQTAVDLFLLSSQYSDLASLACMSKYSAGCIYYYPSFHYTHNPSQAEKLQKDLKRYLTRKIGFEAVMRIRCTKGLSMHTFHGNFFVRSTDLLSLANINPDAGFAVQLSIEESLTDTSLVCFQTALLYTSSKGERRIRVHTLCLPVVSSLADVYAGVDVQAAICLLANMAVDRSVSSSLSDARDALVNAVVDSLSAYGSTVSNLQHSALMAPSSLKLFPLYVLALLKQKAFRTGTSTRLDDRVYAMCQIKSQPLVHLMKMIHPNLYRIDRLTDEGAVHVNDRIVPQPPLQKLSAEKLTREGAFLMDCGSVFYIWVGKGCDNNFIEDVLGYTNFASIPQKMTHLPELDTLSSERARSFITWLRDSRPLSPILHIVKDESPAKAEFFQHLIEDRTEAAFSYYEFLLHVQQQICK

[4] = target: T4, HeLa cell extract proteins (Homo sapiens, UniProt P31040)
T4 construct: endogenous in cells; host or cells: HeLa cell extract
T4 sequence (P31040 43-664): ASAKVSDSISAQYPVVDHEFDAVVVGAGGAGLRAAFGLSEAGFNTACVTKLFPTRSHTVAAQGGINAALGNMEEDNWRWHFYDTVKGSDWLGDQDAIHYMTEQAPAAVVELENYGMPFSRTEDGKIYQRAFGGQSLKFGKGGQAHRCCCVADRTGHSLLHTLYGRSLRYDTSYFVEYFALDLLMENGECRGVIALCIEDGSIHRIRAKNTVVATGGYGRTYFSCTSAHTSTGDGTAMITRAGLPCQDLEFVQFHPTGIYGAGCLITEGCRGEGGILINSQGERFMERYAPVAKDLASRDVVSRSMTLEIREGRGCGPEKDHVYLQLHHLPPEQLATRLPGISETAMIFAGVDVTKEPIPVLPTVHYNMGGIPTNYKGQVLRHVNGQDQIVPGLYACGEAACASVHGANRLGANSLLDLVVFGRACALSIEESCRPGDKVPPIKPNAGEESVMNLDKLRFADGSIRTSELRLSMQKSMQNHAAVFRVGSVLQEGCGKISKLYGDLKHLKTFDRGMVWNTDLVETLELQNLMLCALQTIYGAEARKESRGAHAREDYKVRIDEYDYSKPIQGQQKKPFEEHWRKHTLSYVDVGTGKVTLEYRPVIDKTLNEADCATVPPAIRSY

[5] = target: T5, HeLa cell extract proteins (Homo sapiens, UniProt P17987)
T5 construct: endogenous in cells; host or cells: HeLa cell extract
T5 sequence (P17987 whole entry): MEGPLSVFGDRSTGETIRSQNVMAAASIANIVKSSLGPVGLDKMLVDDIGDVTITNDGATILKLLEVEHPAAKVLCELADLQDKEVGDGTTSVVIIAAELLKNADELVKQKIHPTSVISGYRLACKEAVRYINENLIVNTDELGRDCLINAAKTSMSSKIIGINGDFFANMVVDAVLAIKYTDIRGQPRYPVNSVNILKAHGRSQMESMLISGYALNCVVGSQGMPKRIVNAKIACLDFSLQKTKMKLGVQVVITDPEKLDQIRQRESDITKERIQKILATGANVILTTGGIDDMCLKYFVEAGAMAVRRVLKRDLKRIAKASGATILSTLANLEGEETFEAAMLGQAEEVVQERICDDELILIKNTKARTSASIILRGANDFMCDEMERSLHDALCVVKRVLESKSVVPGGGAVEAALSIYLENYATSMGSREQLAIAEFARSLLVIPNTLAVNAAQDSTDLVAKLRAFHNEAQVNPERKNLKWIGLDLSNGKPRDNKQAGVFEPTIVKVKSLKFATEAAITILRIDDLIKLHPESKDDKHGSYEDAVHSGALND

[6] = target: T6, HeLa cell extract proteins (Homo sapiens, UniProt Q13162)
T6 construct: endogenous in cells; host or cells: HeLa cell extract
T6 sequence (Q13162 38-271): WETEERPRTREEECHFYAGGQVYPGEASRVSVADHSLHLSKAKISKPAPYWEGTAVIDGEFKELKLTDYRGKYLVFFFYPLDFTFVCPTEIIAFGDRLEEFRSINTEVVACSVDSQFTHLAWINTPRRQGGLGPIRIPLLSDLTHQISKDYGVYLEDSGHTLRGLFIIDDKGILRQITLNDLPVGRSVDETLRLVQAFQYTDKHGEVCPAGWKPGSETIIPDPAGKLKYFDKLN

[7] = target: T7, HeLa cell extract proteins (Homo sapiens, UniProt Q15437)
T7 construct: endogenous in cells; host or cells: HeLa cell extract
T7 sequence (Q15437 whole entry): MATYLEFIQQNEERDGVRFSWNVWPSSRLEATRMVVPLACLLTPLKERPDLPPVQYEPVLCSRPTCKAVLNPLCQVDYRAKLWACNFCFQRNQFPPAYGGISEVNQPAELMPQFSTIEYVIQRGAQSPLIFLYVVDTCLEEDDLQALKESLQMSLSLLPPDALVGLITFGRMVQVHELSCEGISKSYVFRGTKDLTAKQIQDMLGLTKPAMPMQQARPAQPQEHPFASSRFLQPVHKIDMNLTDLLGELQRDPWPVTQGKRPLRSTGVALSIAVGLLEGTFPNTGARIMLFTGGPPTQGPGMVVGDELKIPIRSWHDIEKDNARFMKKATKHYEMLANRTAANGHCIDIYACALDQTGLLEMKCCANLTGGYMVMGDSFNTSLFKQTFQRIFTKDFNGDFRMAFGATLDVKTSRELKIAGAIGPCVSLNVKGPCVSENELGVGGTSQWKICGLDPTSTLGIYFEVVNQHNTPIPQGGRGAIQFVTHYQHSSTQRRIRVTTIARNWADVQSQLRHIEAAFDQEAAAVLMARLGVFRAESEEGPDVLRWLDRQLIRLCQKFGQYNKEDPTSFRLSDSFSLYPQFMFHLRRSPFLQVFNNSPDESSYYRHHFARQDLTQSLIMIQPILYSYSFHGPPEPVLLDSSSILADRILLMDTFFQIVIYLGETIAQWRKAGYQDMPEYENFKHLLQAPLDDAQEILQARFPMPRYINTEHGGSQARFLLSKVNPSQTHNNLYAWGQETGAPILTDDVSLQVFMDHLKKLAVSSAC

[8] = target: T8, HeLa cell extract proteins (Homo sapiens, UniProt P67775)
T8 construct: endogenous in cells; host or cells: HeLa cell extract
T8 sequence (P67775 whole entry): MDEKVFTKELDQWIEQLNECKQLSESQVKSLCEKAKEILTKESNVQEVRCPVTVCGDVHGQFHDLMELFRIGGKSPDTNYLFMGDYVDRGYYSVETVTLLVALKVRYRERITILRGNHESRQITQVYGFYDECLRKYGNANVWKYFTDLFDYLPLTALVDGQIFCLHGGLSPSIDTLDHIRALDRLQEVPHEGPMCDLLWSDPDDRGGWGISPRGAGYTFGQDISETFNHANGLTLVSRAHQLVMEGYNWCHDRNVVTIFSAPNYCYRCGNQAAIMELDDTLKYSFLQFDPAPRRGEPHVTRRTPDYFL

[9] = target: T9, HeLa cell extract proteins (Homo sapiens, UniProt P68104)
T9 construct: endogenous in cells; host or cells: HeLa cell extract
T9 sequence (P68104 1-462): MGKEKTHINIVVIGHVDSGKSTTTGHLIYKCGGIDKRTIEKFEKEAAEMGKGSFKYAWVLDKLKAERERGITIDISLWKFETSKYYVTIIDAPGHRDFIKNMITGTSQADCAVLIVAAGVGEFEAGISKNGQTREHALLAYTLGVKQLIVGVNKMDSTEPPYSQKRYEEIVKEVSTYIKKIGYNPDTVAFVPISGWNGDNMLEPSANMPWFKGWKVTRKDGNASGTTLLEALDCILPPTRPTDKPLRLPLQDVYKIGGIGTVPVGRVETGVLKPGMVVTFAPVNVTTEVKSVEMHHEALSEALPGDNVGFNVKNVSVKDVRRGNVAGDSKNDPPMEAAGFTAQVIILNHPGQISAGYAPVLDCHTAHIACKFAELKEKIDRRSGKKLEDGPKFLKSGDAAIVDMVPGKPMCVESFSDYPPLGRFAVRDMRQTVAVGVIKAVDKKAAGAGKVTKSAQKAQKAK

[10] = HeLa, protein PRDX4 (PEROXIREDOXIN-4)

Row | Compound | fold changes relative to vehicle control ([1]; HeLa, captured protein PSMA5) | fold changes relative to vehicle control ([2]; HeLa, protein LRRC59) | fold changes relative to vehicle control ([3]; HeLa, captured protein SEC24B) | fold changes relative to vehicle control ([4]; HeLa, captured protein SDHA) | fold changes relative to vehicle control ([5]; HeLa, protein TCP1) | fold changes relative to vehicle control [6, 10] | fold changes relative to vehicle control ([7]; HeLa, protein SEC23B) | fold changes relative to vehicle control ([8]; HeLa, captured protein PPP2CA) | fold changes relative to vehicle control ([9]; HeLa, captured protein EEF1A1) | fold changes relative to vehicle control ([1]; HeLa, protein PSMA5) | fold changes relative to vehicle control ([2]; protein LRRC59, HeLa) | fold changes relative to vehicle control ([3]; protein SEC24B, HeLa) | fold changes relative to vehicle control ([4]; protein SDHA, HeLa) | fold changes relative to vehicle control ([5]; protein TCP1, HeLa) | fold changes relative to vehicle control ([6]; HeLa, protein PRDX4) | fold changes relative to vehicle control ([8]; HeLa, protein PPP2CA) | fold changes relative to vehicle control ([9]; protein EEF1A1, HeLa) | further results
1 | Nc1nc2c(c(=O)[nH]1)N(C=O)C(CNc1ccc(C(=O)N[C@@H](CCC(=O)O)C(=O)O)cc1)CN2 (stereo partly drawn) [LEU, leucovorin] | 1.03 | 0.83 | 1.06 | 1 | 1.04 | 1.09 | 0.98 | 0.95 | 1.01 |  |  |  |  |  |  |  |  | 
2 | Nc1nc2[nH]cc(CCc3ccc(C(=O)N[C@@H](CCC(=O)O)C(=O)O)cc3)c2c(=O)[nH]1 [PTX, pemetrexed] |  |  |  |  |  |  |  |  |  |  |  |  |  |  |  |  |  | fold changes relative to vehicle control [1]: 1.04; fold changes relative to vehicle control [2]: 0.83; fold changes relative to vehicle control [3]: 0.94; fold changes relative to vehicle control [4]: 0.97; fold changes relative to vehicle control [5]: 1.08; fold changes relative to vehicle control [6]: 0.96; fold changes relative to vehicle control [7]: 0.91; fold changes relative to vehicle control [8]: 0.93; fold changes relative to vehicle control [9]: 0.93
3 | CCCCCCOc1ccc(Cc2cnc(N)nc2N)cc1 [compound 1] |  |  |  |  |  |  | 1.01 |  |  | 1.05 | 1.14 | 1.05 | 1.19 | 1.22 | 1.08 | 0.87 | 1.17 | 
4 | CCCCCCOc1cccc(Cc2cnc(N)nc2N)c1 [compound 2] |  |  |  |  |  |  | 0.93 |  |  | 1.19 | 1.54 | 1.15 | 1.2 | 1.65 | 0.93 | 1.02 | 1.47 | 
5 | Nc1nc2cccc(-c3ccccc3)c2n1Cc1ccc(Cl)c(Cl)c1 [compound 3] |  |  |  |  |  |  | 1.04 |  |  | 1 | 0.98 | 1.01 | 1.02 | 1.09 | 0.99 | 0.91 | 0.97 | 
6 | NCCOCCOCC(=O)Nc1nc2ncc(CNc3ccc(C(=O)NC(CCC(=O)O)C(=O)O)cc3)nc2c(=O)[nH]1 (stereo not drawn) [compound 6] | 1.08 | 1.13 | 0.94 | 1.06 | 1.32 | 0.92 | 0.88 | 0.91 | 0.99 |  |  |  |  |  |  |  |  | 
7 | NCCCNc1ccc(C(=O)NC(CCC(=O)O)C(=O)O)cc1 (stereo not drawn) [compound 7] | 0.99 | 0.87 | 1.06 | 0.92 | 1.07 | 0.99 | 1.09 | 0.97 | 0.93 |  |  |  |  |  |  |  |  | 

— publication PMC6199744, “Development of Chemical Proteomics for the Folateome and Analysis of the Kinetoplastid Folateome” (ACS Infectious Diseases, 2018)
